The IC50 is the concentration needed to halve the response being measured.

The target of the experiment is T1, Anoctamin 1 (ANO1) (Homo sapiens, UniProt Q5XXA6).
T1 construct: ANO1 stably expressed in FRT cells
T1 sequence (Q5XXA6 1-986): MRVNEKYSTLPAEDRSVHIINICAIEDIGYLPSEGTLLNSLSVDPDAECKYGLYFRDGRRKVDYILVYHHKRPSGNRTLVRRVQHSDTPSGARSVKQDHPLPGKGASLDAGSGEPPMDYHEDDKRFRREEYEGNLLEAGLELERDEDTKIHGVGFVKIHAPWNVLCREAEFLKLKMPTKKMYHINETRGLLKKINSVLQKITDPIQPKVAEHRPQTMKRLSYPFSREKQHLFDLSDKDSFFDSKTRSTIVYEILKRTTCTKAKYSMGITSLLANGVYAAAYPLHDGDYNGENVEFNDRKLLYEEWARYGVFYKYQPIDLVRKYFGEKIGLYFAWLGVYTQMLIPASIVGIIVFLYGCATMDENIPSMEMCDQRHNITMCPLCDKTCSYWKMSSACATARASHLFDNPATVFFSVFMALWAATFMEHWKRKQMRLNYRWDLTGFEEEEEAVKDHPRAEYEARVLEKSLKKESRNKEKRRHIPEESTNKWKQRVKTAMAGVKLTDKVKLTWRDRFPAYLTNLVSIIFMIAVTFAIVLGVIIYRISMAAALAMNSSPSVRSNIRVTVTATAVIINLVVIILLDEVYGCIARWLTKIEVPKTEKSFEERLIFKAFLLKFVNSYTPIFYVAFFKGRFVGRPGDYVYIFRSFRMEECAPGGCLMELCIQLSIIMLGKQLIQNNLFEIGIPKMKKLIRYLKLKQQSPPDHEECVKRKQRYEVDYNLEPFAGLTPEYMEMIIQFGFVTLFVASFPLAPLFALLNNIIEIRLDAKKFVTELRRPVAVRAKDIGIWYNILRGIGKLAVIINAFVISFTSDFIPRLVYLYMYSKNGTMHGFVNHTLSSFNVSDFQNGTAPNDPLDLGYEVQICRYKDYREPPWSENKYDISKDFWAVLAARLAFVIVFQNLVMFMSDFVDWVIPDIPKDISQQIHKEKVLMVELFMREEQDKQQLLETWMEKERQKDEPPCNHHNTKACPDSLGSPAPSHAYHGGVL
As to the kind of experiment: YFP fluorescence quenching (iodide influx) assay in FRT cells expressing ANO1 and YFP. The class given is cell-based.

As for `COc1cc(C[C@@H](C)[C@@H](C)Cc2cc(O)c(OC)c(OC)c2)cc(O)c1OC` [compound 11, schisandrathera D], the IC50 stood at 5.24 µM.

The values above are taken from PMC10232832, “ANO1-downregulation induced by schisandrathera D: a novel therapeutic target for the treatment of prostate and oral cancers” (Frontiers in Pharmacology, 2023).
